This is an account of results in ChEMBL document CHEMBL5108028 (Bioorg Med Chem, 2022).

One assay relates to MKN-7. Put plainly: Anticancer activity against human MKN-7 cells assessed as inhibition of cell growth incubated for 3 days by MTT assay. The assay is classed as functional, cell-based. Conditions: MKN-7, 72 h. On the technique in general: Formazan colour is commonly taken as a measure of viable cells.
A further assay has as its system MKN-74. Put plainly: Anticancer activity against human MKN-74 cells assessed as inhibition of cell growth incubated for 3 days by MTT assay. The note with it: MKN-74, 72 h. The assay is classed as functional, cell-based.
The target of assay [1] is T1, Cadherin-1 (Homo sapiens) (UniProt P12830).
T1 sequence (whole entry): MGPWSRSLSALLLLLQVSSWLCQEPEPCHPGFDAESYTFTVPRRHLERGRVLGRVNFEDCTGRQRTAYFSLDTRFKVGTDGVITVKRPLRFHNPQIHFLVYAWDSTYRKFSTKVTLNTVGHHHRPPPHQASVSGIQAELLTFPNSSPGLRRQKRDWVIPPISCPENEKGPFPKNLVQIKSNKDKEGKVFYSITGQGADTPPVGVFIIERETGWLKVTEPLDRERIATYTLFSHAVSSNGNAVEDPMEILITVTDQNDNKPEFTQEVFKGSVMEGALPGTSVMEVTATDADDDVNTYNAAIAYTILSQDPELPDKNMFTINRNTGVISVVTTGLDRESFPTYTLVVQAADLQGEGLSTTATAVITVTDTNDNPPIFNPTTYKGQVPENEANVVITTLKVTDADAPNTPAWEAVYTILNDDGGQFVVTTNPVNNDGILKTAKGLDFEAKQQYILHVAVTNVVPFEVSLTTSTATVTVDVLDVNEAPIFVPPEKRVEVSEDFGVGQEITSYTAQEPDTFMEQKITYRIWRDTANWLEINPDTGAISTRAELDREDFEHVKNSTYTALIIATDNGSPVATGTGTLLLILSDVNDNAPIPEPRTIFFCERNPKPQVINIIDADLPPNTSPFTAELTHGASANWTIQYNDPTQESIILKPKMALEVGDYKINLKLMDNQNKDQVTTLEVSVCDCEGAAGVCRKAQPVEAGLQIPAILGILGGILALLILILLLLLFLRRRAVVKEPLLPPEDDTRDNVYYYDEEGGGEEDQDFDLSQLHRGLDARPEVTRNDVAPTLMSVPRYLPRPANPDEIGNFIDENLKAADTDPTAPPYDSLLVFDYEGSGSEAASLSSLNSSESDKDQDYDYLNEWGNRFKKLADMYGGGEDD
Put plainly: Binding affinity to human E-cadherin in human MKN-7 cell membrane protein fraction measured after 2 hrs by Western blotting based pull-down assay. The assay is classed as cell membranes. Background: In western blotting, separated proteins are transferred to a membrane and probed.

By pIC50 is commonly meant the IC50 on a negative log10 scale, so that one unit is a factor of ten. The IC50 is the concentration that inhibits the measured activity by half.

pIC50: −log10 of the molar value. Activity calls are given as the source filed them. The calls are words filed in the database; no cut-off is given here. Where a SMILES comes first, the peptide text is derived from it. [ ]: non-standard residue; d: D form. 2Thi = N[C@@H](Cc1cccs1)C(=O)O; hSer = N[C@@H](CCO)C(=O)O; Nle = CCCC[C@H](N)C(=O)O

In the case of `CC[C@H](C)[C@H](NC(=O)[C@@H](N)Cc1ccccc1)C(=O)N[C@@H](CC(=O)O)C(=O)N[C@@H](CC(C)C)C(=O)N[C@@H](CC(N)=O)C(=O)N[C@@H](Cc1ccc(O)cc1)C(=O)N[C@@H](CCSC)C(=O)N[C@H](C(=O)N[C@@H](Cc1ccc(O)cc1)C(=O)N[C@@H](Cc1cccs1)C(N)=O)C(C)C` (H-FIDLNYMVY[2Thi]-NH2), the results for the pIC50 in the assay on MKN-7 and in the assay on MKN-74 were 5.06 and 6.01, respectively.

Take `CCCC[C@H](NC(=O)[C@H](Cc1ccc(O)cc1)NC(=O)[C@@H](NC(=O)[C@H](CCSC)NC(=O)[C@H](Cc1ccc(O)cc1)NC(=O)[C@H](CC(N)=O)NC(=O)[C@H](CC(C)C)NC(=O)[C@H](CC(=O)O)NC(=O)[C@@H](NC(=O)[C@@H](N)Cc1ccccc1)[C@@H](C)CC)C(C)C)C(N)=O` (H-FIDLNYMVY[Nle]-NH2): the pIC50 with MKN-7 was 4.99; in the assay with MKN-74 it was 6.46.

With `CC[C@H](C)[C@H](NC(=O)[C@@H](N)Cc1ccccc1)C(=O)N[C@@H](CC(=O)O)C(=O)N[C@@H](CC(C)C)C(=O)N[C@@H](CC(N)=O)C(=O)N[C@@H](Cc1ccc(O)cc1)C(=O)N[C@@H](CCSC)C(=O)N[C@H](C(=O)N[C@@H](Cc1ccc(O)cc1)C(=O)N[C@@H](CCOC)C(N)=O)C(C)C` (H-FIDLNYMVY[hSer](Me)-NH2), the pIC50 is 5.35 in the assay with MKN-7 and 6.72 with MKN-74.

Regarding `CC[C@H](C)[C@H](NC(=O)[C@@H](N)Cc1ccccc1)C(=O)N[C@@H](CC(=O)O)C(=O)N[C@@H](CC(C)C)C(=O)N[C@@H](CC(N)=O)C(=O)N[C@@H](Cc1ccc(O)cc1)C(=O)N[C@@H](Cc1cccs1)C(=O)N[C@H](C(=O)N[C@@H](Cc1ccc(O)cc1)C(=O)N[C@@H](CCSC)C(N)=O)C(C)C` (H-FIDLNY[2Thi]VYM-NH2), the figures for the negative logarithm of the IC50 (pIC50) with MKN-7 and in the assay on MKN-74 were 5.20 and 6.02, respectively.

Turning to `CCCC[C@H](NC(=O)[C@H](Cc1ccc(O)cc1)NC(=O)[C@H](CC(N)=O)NC(=O)[C@H](CC(C)C)NC(=O)[C@H](CC(=O)O)NC(=O)[C@@H](NC(=O)[C@@H](N)Cc1ccccc1)[C@@H](C)CC)C(=O)N[C@H](C(=O)N[C@@H](Cc1ccc(O)cc1)C(=O)N[C@@H](CCSC)C(N)=O)C(C)C` (H-FIDLNY[Nle]VYM-NH2), the values for the negative-log IC50 (pIC50) with MKN-7 and in the assay on MKN-74 were 5.79 and 6.70, respectively.

In the case of `CCCC[C@H](NC(=O)[C@H](Cc1ccc(O)cc1)NC(=O)[C@H](CC(N)=O)NC(=O)[C@H](CC(C)C)NC(=O)[C@H](CC(=O)O)NC(=O)[C@@H](NC(=O)[C@@H](N)Cc1ccccc1)[C@@H](C)CC)C(=O)N[C@H](C(=O)N[C@@H](Cc1ccc(O)cc1)C(=O)N[C@@H](CCOC)C(N)=O)C(C)C` (H-FIDLNY[Nle]VY[hSer](Me)-NH2), the negative logarithm of the IC50 (pIC50) is 6.21 in the assay with MKN-7 and 7.15 in the assay with MKN-74.

Regarding `CC[C@H](C)[C@H](NC(=O)[C@@H](N)Cc1ccccc1)C(=O)N[C@@H](CC(=O)O)C(=O)N[C@@H](CC(C)C)C(=O)N[C@@H](CC(N)=O)C(=O)N[C@@H](Cc1ccc(O)cc1)C(=O)N[C@@H](CCOC)C(=O)N[C@H](C(=O)N[C@@H](Cc1ccc(O)cc1)C(=O)N[C@@H](CCSC)C(N)=O)C(C)C` (H-FIDLNY[hSer](Me)VYM-NH2), the pIC50 with MKN-7 was 5.45; with MKN-74, 6.70.

Take H-AIDLNYMVYM-OH: the negative logarithm of the IC50 (pIC50) was 5.39 with MKN-7 and 5.03 in the assay on MKN-74.

Turning to H-DLNYMVYM-NH2, the pIC50 with MKN-7 is 4.87; in the assay with MKN-74, 4.69.

With H-FADLNYMVYM-OH, the negative logarithm of the IC50 (pIC50) with MKN-7 was 5.36; in the assay on MKN-74 it was 5.41.

On to H-FIALNYMVYM-OH, for which the pIC50 in the assay with MKN-7 was 6.01; in the assay on MKN-74 it was 5.94.

Take H-FIDANYMVYM-OH: the pIC50 in the assay on MKN-7 is 5.02; in the assay with MKN-74, 5.26.

With H-FIDLAYMVYM-OH, the negative logarithm of the IC50 (pIC50) in the assay on MKN-7 is 5.24; in the assay on MKN-74 it was 5.05.

For H-FIDLNAMVYM-OH, the negative-log IC50 (pIC50) is 5.58 in the assay on MKN-7 and 5.94 with MKN-74.

With H-FIDLNYAVYM-OH, the negative-log IC50 (pIC50) in the assay with MKN-7 was 5.52; with MKN-74 it was 5.04.

Consider H-FIDLNYFVYM-NH2, for which the results for the pIC50 in the assay with MKN-7 and in the assay on MKN-74 were 5.08 and 5.80, respectively.

As for H-FIDLNYLVYM-NH2, the results for the pIC50 with MKN-7 and with MKN-74 were 5.47 and 6.80, respectively.

For the compound H-FIDLNYMAYM-OH, the negative logarithm of the IC50 (pIC50) was 4.83 in the assay on MKN-7 and 4.79 in the assay with MKN-74.

With H-FIDLNYMV-NH2, the pIC50 in the assay with MKN-7 was 5.09; with MKN-74 it was 4.67.

On to H-FIDLNYMVAM-OH, for which the pIC50 in the assay on MKN-7 was 5.37; with MKN-74, 5.95.

Take H-FIDLNYMVY-NH2: the pIC50 in the assay on MKN-7 is 5.37; in the assay with MKN-74 it was 4.75.

As for H-FIDLNYMVYA-OH, the negative logarithm of the IC50 (pIC50) was 5.06 with MKN-7 and 5.35 in the assay on MKN-74.

For the compound H-FIDLNYMVYF-NH2, the pIC50 was 5.16 in the assay with MKN-7 and 6.60 with MKN-74.

Regarding H-FIDLNYMVYL-NH2, the values for the negative logarithm of the IC50 (pIC50) in the assay with MKN-7 and in the assay with MKN-74 were 5.01 and 5.96, respectively.

As for H-FIDLNYMVYM-NH2, the negative logarithm of the IC50 (pIC50) in the assay on MKN-7 was 5.95; with MKN-74, 6.43.

For H-FIDLNYMVYM-OH, the outcome in assay [1] was Active. Moreover, the values for the IC50 in the assay with MKN-7 and in the assay on MKN-74 were 18.9 µg/mL and 13.2 µg/mL, respectively.

For H-IDLNYMVYM-NH2, the pIC50 was 4.94 in the assay on MKN-7 and 4.59 in the assay with MKN-74.

Consider H-KVDIVAINDP-OH, for which the IC50 in the assay on MKN-7 was 97.3 µg/mL.

Regarding H-YMVYMFQYDS-OH, in the assay with MKN-7, the IC50 came to 79.1 µg/mL.
